Assay results published in patent US9757473B2, “Cell-penetrating peptide and conjugate comprising same” (GEMVAX & KAEL CO., LTD., priority 2013, dated 2017).
Residues, ends and D or L forms follow the SMILES beside them. No end group written: not given here.

What was measured:
Assay type in all cases: cell-based
[1] = system: normal cell DPSC (Dental Pulp Stem Cell); assay: Dose-dependent cell apoptosis by MTT assay, normal cells (Example 5)
Experimental: (§1) The cell line was made by the cells and the cell cultivation method described in example 2 as same.
(§2) After culturing the cancer cells and normal cells at 96 well-plate in 30-40% level 24-hours in advance by pre-seeding, treating with each reagent, and pre-evaluating killing ability by analyzing cell shape through microscope at 24 hours/48 hours/72 hours after, the quantitative analysis was done by MTT (3-(4,5-dimethylthiazol-2-yl)-2,5-diphenyltetrazolium bromide, a yellow tetrazole) assay which measures OD (optical density) values at 72 hours after.

[2] = system: head and neck cancer cells; assay: Dose-dependent cell apoptosis by MTT assay, cancer cell lines (Example 5); details: MTT at 72 hours
Experimental: as §1, §2

[3] = system: HN5 and OSC19 head and neck cancer cells; assay: Intracellular trafficking (cell penetrability) by flow cytometry (FACS); details: 10 uM, 2.5 hours
Experimental: (§3) In order to analysis of intracellular trafficking, Korean head and neck cancer cells (SNU-1041, SNU-1076), head and neck cancer cells founded by MD Anderson cancer center (OSC19, HN5), and normal cells DPSC (Dental Pulp Stem Cell) were used. The cell lines was maintained in good condition by seeding each cells to 100 cm2-culture dishes with RPMI-1640 or DMEM culture-media, 10% FBS and antibiotic-antimycotic antibiotics and culturing in incubator (37° C., 5% CO2). The condition of cells was maintained in good condition by checking the speed and conditions of cells and sub-culturing cells per 2-5 days.

[4] = system: head and neck cancer cells; assay: as above; details: 10 uM, 2.5 hours
Experimental: as §3

[5] = system: SNU-1041 and SNU-1076 head and neck cancer cells; assay: as above; details: SNU-1041 and SNU-1076 cells, 10 uM, 2.5 hours, FIG. 2
Experimental: In order to analysis of intracellular trafficking, Korean head and neck cancer cells (SNU-1041, SNU-1076), head and neck cancer cells founded by MD Anderson cancer center (OSC19, HN5), and normal cells DPSC (Dental Pulp Stem Cell) were used.
The cell lines was maintained in good condition by seeding each cells to 100 cm2-culture dishes with RPMI-1640 or DMEM culture-media, 10% FBS and antibiotic-antimycotic antibiotics and culturing in incubator (37° C., 5% CO2). The condition of cells was maintained in good condition by checking the speed and conditions of cells and sub-culturing cells per 2-5 days.
After culturing the cells with prepared cancer cells in 6 well-plate at 60-70% level 24-hours in advance, treating FITC (10 uM), pep1-FITC (10 uM), FITC-TAT (10 uM) separately, eliminating the culture media 2.5 hours later, washing with saline, and separating cells by treating Trypsin-EDTA enzyme to prepare each tube of 10^6 cells/ml, the cells was analyzed by FACS.

## Cc1ccc(S(=O)(=O)OCC(=O)Nc2ccc(C(=O)O)c(O)c2)cc1 [NSC 74859]
[1]; MTT at 72 hours, FIG. 4
  concentration at which cell apoptosis of normal cells was shown: 200 µM
  concentration till which normal cells were not killed: 100 µM
[2]; FIG. 4, FIG. 5
  concentration from which killing / apoptosis of cancer cells started: 50 µM
  concentration killing almost the whole cancer cells: 200 µM

## CSCC[C@H](NC(=O)[C@H](CC(N)=O)NC(=O)[C@H](CCCNC(=N)N)NC(=O)CNC(=O)[C@H](C)NC(=O)[C@H](CCCCN)NC(=O)[C@H](Cc1ccccc1)NC(=O)CNC(=O)[C@H](CCCNC(=N)N)NC(=O)[C@H](CC(N)=O)NC(=O)c1ccc(NC(=O)COS(=O)(=O)c2ccc(C)cc2)cc1O)C(=O)N[C@@H](CCCNC(=N)N)C(=O)N[C@@H](CCCNC(=N)N)C(=O)N[C@@H](CCCCN)C(=O)N[C@@H](CC(C)C)C(=O)N[C@@H](Cc1ccccc1)C(=O)NCC(=O)N[C@H](C(=O)N[C@@H](CC(C)C)C(=O)N[C@@H](CCCNC(=N)N)C(=O)N[C@@H](CC(C)C)C(=O)O)C(C)C [pep98-NSC 74859] (HELM PEPTIDE1{[Cc1ccc(S(=O)(=O)OCC(=O)[*:2])cc1].[O=C(c1ccc(N[*:1])cc1O)[*:2]].N.R.G.F.K.A.G.R.N.M.R.R.K.L.F.G.V.L.R.L}$$$$V2.0)
[1]; at the concentration that killed almost the whole cancer cells, FIG. 5
  killing of normal cells (in words): did not kill normal cell DPSC

## NRGFKAGRNMRRKLFGVLRL [pep98]
[2]; treated alone, FIG. 3
  proliferation of cancer cells (cytotoxicity): not significantly decreased

## pep1-FITC (EARPALLTSRLRFIPK; also: FITC label, site not given here; UniProt O14746 611-626, looked up, fragment)
[3]
  cell penetrability (in words): lower cell penetrability
[4]
  cell penetrability compared with FITC only: improved cell penetrability than the FITC only

## pep 1: pep 1 (consists of 16 amino acids) derived from telomerase, used for comparison (EARPALLTSRLRFIPK; UniProt O14746 611-626, looked up, fragment)
[5]
  cell penetrability (in words): high cell penetrability
